SMILES strings stand for the structures.

Sequence of DGKα (P23743 whole entry, species assumed): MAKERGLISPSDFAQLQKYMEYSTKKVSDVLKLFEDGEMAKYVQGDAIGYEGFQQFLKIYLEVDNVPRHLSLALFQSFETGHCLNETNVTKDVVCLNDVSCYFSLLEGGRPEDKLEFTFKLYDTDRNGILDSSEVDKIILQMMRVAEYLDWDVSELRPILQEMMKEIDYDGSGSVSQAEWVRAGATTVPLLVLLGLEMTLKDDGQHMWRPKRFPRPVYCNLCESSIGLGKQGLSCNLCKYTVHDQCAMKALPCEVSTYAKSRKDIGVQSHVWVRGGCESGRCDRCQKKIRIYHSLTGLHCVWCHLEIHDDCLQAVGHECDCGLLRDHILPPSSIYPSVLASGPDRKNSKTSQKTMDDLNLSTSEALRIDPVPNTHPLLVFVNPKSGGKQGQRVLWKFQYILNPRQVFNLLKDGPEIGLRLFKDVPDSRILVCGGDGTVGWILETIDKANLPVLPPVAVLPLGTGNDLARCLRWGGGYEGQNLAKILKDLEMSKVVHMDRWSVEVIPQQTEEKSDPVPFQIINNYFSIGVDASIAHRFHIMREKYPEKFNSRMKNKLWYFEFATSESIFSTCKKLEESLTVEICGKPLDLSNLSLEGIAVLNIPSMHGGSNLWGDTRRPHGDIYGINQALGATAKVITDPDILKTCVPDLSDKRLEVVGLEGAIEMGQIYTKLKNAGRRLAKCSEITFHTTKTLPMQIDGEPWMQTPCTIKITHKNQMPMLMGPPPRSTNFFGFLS

The test addresses DGKα (Homo sapiens (Human), UniProt P23743). Kind of test: Measurement of inhibitory effect against DGKα enzyme (ADP-Glo). The note with it: DGKα enzyme, ADP-Glo luminescence, OAG/ATP substrate, 20 min room temperature; read-out: IC50. It is filed as biochemical. The method, then:
Experimental Example: Measurement of Inhibitory Effect Against DGKα Enzyme
First, 3×OAG (3 mM)/ATP (0.45 mM) substrate solution was prepared from 1× substrate assay buffer (40 mM MOPS (pH 7.2), 20 mM MgCl2, 1 mM DTT, 0.4 mM CaCl2), 3 mM sodium deoxycholate, 100 mM NaCl, 0.1 mg/mL BSA, 0.12% NP-40), and vortexed thoroughly for 3 minutes to induce detergent-lipid micelle formation. Then, 3×DGKα (7.5 nM) enzyme solution was prepared from 2× enzyme assay buffer (80 mM MOPS (pH 7.2), 2 mM DTT, 200 mM NaCl, 0.2 mg/mL BSA) and vortexed for a short time.
After preparing the above two solutions, a half-area opaque 96-well assay plate was prepared, and 10 μL of 3× diluted compound solution (30 μM to 0 μM) was transferred to each well. Next, 10 μL of 3×DGK enzyme solution was transferred to the same plate, mixed by pipetting, and then 10 μL of 3×OAG/ATP substrate solution was added to the assay plate and mixed well. The plate was incubated at room temperature for 20 minutes for the enzyme reaction. Next, 15 μL of ADP-Glo reagent was added to each well and mixed by pipetting, followed by incubating the plate at room temperature for 40 minutes to deplete the remaining ATPs. After this step, 30 μL of kinase detection reagent was added and mixed, and the plate was incubated at room temperature for an additional 20 minutes and luminescence was measured by Envision to calculate the IC50 value of each compound.
The measurement results are represented in Table 1 (+: IC50>5 μM, ++: 5 μM>IC50>300 nM, +++: IC50<300 nM).
`COc1ncccc1CN1CCC(n2c(=O)c(=O)n(C)c3ccc(C)nc32)CC1` [Example 15, 4-(1-((2-methoxypyridin-3-yl)methyl)piperidin-4-yl)-1,6-dimethyl-1,4-dihydropyrido[2,3-b]pyrazine-2,3-dione]: the IC50 (in general, the concentration needed to halve the response being measured) was more than 5000 nM. `CC(C)Oc1ccc2c(n1)n(C1CCN(Cc3ccc(OC(F)(F)F)cc3)CC1)c(=O)c(=O)n2C` [Example 58, 6-isopropoxy-1-methyl-4-(1-(4-(trifluoromethoxy)benzyl)piperidin-4-yl)-1,4-dihydropyrido[2,3-b]pyrazine-2,3-dione]: the IC50 is more than 5000 nM.

`Cn1c(=O)c(=O)n(C2CCN(Cc3ccc(OC(F)(F)F)cc3)CC2)c2ncc(C3CC3)cc21` [Example 40, 7-cyclopropyl-1-methyl-4-(1-(4-(trifluoromethoxy)benzyl)piperidin-4-yl)-1,4-dihydropyrido[2,3-b]pyrazine-2,3-dione]: the IC50 is more than 5000 nM. As for `Cc1ccc2c(n1)n(C1CCN(Cc3cccc(F)n3)CC1)c(=O)c(=O)n2C` [Example 16, 4-(1-((6-fluoropyridin-2-yl)methyl)piperidin-4-yl)-1,6-dimethyl-1,4-dihydropyrido[2,3-b]pyrazine-2,3-dione], the figure is more than 5000 nM; as for `Cc1ccc2c(n1)n(C1CCN(Cc3ccccc3Cl)CC1)c(=O)c(=O)n2C` [Example 12, 4-(1-(2-chlorobenzyl)piperidin-4-yl)-1,6-dimethyl-1,4-dihydropyrido[2,3-b]pyrazine-2,3-dione], 300 to 5000 nM; as for `Cn1c(=O)c(=O)n(C2CCN(Cc3ccc(OC(F)(F)F)cc3)CC2)c2ncccc21` [Example 1, methyl-4-(1-(4-(trifluoromethoxy)benzyl)piperidin-4-yl)-1,4-dihydropyrido[2,3-b]pyrazine-2,3-dione], less than 300 nM. Turning to `Cn1c(=O)c(=O)n(C2CCN(Cc3ccc(OC(F)(F)F)cc3)CC2)c2ncc(C(N)=O)cc21` [Example 66, 1-methyl-2,3-dioxo-4-(1-(4-(trifluoromethoxy)benzyl)piperidin-4-yl)-1,2,3,4-tetrahydropyrido[2,3-b]pyrazine-7-carboxamide], the IC50 is less than 300 nM. Regarding `Cc1ccc2c(n1)n(C1CCN(Cc3cccc4cnccc34)CC1)c(=O)c(=O)n2C` [Example 20, 4-(1-(isoquinolin-5-ylmethyl)piperidin-4-yl)-1,6-dimethyl-1,4-dihydropyrido[2,3-b]pyrazine-2,3-dione], the IC50 fell in the range of 300 to 5000 nM. Consider `Cc1ccc2c(n1)n(C1CCN(Cc3cccc(Cl)c3)CC1)c(=O)c(=O)n2C` [Example 13, 4-(1-(3-chlorobenzyl)piperidin-4-yl)-1,6-dimethyl-1,4-dihydropyrido[2,3-b]pyrazine-2,3-dione], for which the IC50 is less than 300 nM.

As for `Cn1c(=O)c(=O)n(C2CCN(C(c3cccc(Cl)c3)c3cccc(Cl)c3)CC2)c2ncc(Cl)cc21` [Example 45, 4-(1-(bis(3-chlorophenyl)methyl)piperidin-4-yl)-7-chloro-1-methyl-1,4-dihydropyrido[2,3-b]pyrazine-2,3-dione], the IC50 lay in the range of 300 to 5000 nM.

Turning to `Cc1ccc2c(n1)n(C1CCN(Cc3ccc(F)nc3)CC1)c(=O)c(=O)n2C` [Example 17, 4-(1-((6-fluoropyridin-3-yl)methyl)piperidin-4-yl)-1,6-dimethyl-1,4-dihydropyrido[2,3-b]pyrazine-2,3-dione], the IC50 fell in the range of 300 to 5000 nM. Regarding `Cc1cnc2c(c1)n(C)c(=O)c(=O)n2C1CCN(Cc2cccc(Cl)c2)CC1` [Example 67, 4-(1-(3-chlorobenzyl)piperidin-4-yl)-1,7-dimethyl-1,4-dihydropyrido[2,3-b]pyrazine-2,3-dione], the IC50 is less than 300 nM. `CC(=O)c1cnc2c(c1)n(C)c(=O)c(=O)n2C1CCN(Cc2ccc(OC(F)(F)F)cc2)CC1` [Example 48, 7-acetyl-1-methyl-4-(1-(4-(trifluoromethoxy)benzyl)piperidin-4-yl)-1,4-dihydropyrido[2,3-b]pyrazine-2,3-dione]: the IC50 is less than 300 nM. Regarding `CN(C)C(=O)c1cnc2c(c1)n(C)c(=O)c(=O)n2C1CCN(Cc2ccc(OC(F)(F)F)cc2)CC1` [Example 64, N,N,1-trimethyl-2,3-dioxo-4-(1-(4-(trifluoromethoxy)benzyl)piperidin-4-yl)-1,2,3,4-tetrahydropyrido[2,3-b]pyrazine-7-carboxamide], the concentration for half-maximal inhibition (IC50) was more than 5000 nM. Then `Cc1ccc2c(n1)n(C1CCN(Cc3ccc(OC(F)(F)F)cc3)CC1)c(=O)c(=O)n2C` [Example 2, 1,6-dimethyl-4-(1-(4-(trifluoromethoxy)benzyl)piperidin-4-yl)-1,4-dihydropyrido[2,3-b]pyrazine-2,3-dione], with less than 300 nM. Then `Cn1c(=O)c(=O)n(C2CCN(Cc3ccc(OC(F)(F)F)cc3)CC2)c2nc(C#N)c(Br)cc21` [Example 38, 7-bromo-1-methyl-2,3-dioxo-4-(1-(4-(trifluoromethoxy)benzyl)piperidin-4-yl)-1,2,3,4-tetrahydropyrido[2,3-b]pyrazine-6-carbonitrile], with 300 to 5000 nM; and `Cc1ccnc2c1n(C)c(=O)c(=O)n2C1CCN(Cc2ccc(OC(F)(F)F)cc2)CC1` [Example 56, 1,8-dimethyl-4-(1-(4-(trifluoromethoxy)benzyl)piperidin-4-yl)-1,4-dihydropyrido[2,3-b]pyrazine-2,3-dione], with more than 5000 nM. As to `Cc1cnc2c(c1)n(C)c(=O)c(=O)n2C1CCN(Cc2ccc(OC(F)(F)F)cc2)CC1` [Example 61, 1,7-dimethyl-4-(1-(4-(trifluoromethoxy)benzyl)piperidin-4-yl)-1,4-dihydropyrido[2,3-b]pyrazine-2,3-dione], the IC50 is less than 300 nM.

As for `Cc1ccc2c(n1)n(C1CCN(Cc3ccccc3)CC1)c(=O)c(=O)n2C` [Example 23, 4-(1-benzylpiperidin-4-yl)-1,6-dimethyl-1,4-dihydropyrido[2,3-b]pyrazine-2,3-dione], the IC50 was 300 to 5000 nM. Take `Cc1ccc2c(n1)n(C1CCN(C(C)c3ccc4nccnc4c3)CC1)c(=O)c(=O)n2C` (centres unmarked) [Example 24, 1,6-dimethyl-4-(1-(1-(quinoxalin-6-yl)ethyl)piperidin-4-yl)-1,4-dihydropyrido[2,3-b]pyrazine-2,3-dione]: the IC50 is more than 5000 nM. With `Cc1ccc2c(n1)n(C1CCN(Cc3ccc(Cl)cc3)CC1)c(=O)c(=O)n2C` [Example 14, 4-(1-(4-chlorobenzyl)piperidin-4-yl)-1,6-dimethyl-1,4-dihydropyrido[2,3-b]pyrazine-2,3-dione], the IC50 lay in the range of 300 to 5000 nM. Turning to `Cn1c(=O)c(=O)n(C2CCN(Cc3cccc(Cl)c3)CC2)c2nc(C#N)ccc21` [Example 25, 4-(1-(3-chlorobenzyl)piperidin-4-yl)-1-methyl-2,3-dioxo-1,2,3,4-tetrahydropyrido[2,3-b]pyrazine-6-carbonitrile], the half-inhibitory concentration (IC50) fell in the range of 300 to 5000 nM. With `COC(=O)c1cnc2c(c1)n(C)c(=O)c(=O)n2C1CCN(Cc2ccc(OC(F)(F)F)cc2)CC1` [Example 60, methyl 1-methyl-2,3-dioxo-4-(1-(4-(trifluoromethoxy)benzyl)piperidin-4-yl)-1,2,3,4-tetrahydropyrido[2,3-b]pyrazine-7-carboxylate], the IC50 is less than 300 nM.

Turning to `Cn1c(=O)c(=O)n(C2CCN(Cc3ccc(OC(F)(F)F)cc3)CC2(C)C)c2ncc(Cl)cc21` (centres unmarked) [Example 31, 7-chloro-4-(3,3-dimethyl-1-(4-(trifluoromethoxy)benzyl)piperidin-4-yl)-1-methyl-1,4-dihydropyrido[2,3-b]pyrazine-2,3-dione], the IC50 lay within 300 to 5000 nM. For the compound `Cn1c(=O)c(=O)n(C2CCN(Cc3ccc(OC(F)(F)F)cc3)CC2)c2nc(-c3ccccc3F)c(Cl)cc21` [Example 41, 7-chloro-6-(2-fluorophenyl)-1-methyl-4-(1-(4-(trifluoromethoxy)benzyl)piperidin-4-yl)-1,4-dihydropyrido[2,3-b]pyrazine-2,3-dione], the IC50 is less than 300 nM. For `Cc1ccc2c(n1)n(C1CCN(Cc3ccc4ccccc4c3)CC1)c(=O)c(=O)n2C` [Example 19, 1,6-dimethyl-4-(1-(naphthalen-2-ylmethyl)piperidin-4-yl)-1,4-dihydropyrido[2,3-b]pyrazine-2,3-dione], the half-inhibitory concentration (IC50) lay within 300 to 5000 nM. For `Cn1c(=O)c(=O)n(C2CCN(Cc3ccc4c(c3)OCCO4)CC2)c2ncc(Cl)cc21` [Example 46, 7-chloro-4-(1-((2,3-dihydrobenzo[b][1,4]dioxin-6-yl)methyl)piperidin-4-yl)-1-methyl-1,4-dihydropyrido[2,3-b]pyrazine-2,3-dione], the IC50 was in the range of 300 to 5000 nM. Turning to `Cn1cc(-c2cnc3c(c2)n(C)c(=O)c(=O)n3C2CCN(Cc3ccc(OC(F)(F)F)cc3)CC2)cn1` [Example 36, 1-methyl-7-(1-methyl-1H-pyrazol-4-yl)-4-(1-(4-(trifluoromethoxy)benzyl)piperidin-4-yl)-1,4-dihydropyrido[2,3-b]pyrazine-2,3-dione], the IC50 was less than 300 nM.

`Cn1c(=O)c(=O)n(C2CCN(Cc3cccc4ccccc34)CC2)c2nc(C#N)ccc21` [Example 26, 1-methyl-4-(1-(naphthalen-1-ylmethyl)piperidin-4-yl)-2,3-dioxo-1,2,3,4-tetrahydropyrido[2,3-b]pyrazine-6-carbonitrile]: the IC50 fell in the range of 300 to 5000 nM.

These data come from patent US20240067645A1, “HETEROCYCLIC COMPOUND AS DIACYLGLYCEROL KINASE INHIBITOR AND USE THEREOF” (LG CHEM, LTD., priority 2020, published 2024).
